Experimental data as given in patent US20210340629A1, “BIOMARKERS FOR CANCER THERAPY” (The Council of the Queensland Institute of Medical Research, priority 2018, published 2021).

Columns and labels:
PARP = PARP cleavage as a measure of apoptosis; type: cell-based, human; conditions: any cell line treated, data not shown
Description: Having established that G9a inhibition is effective in inducing death of melanoma cells in vitro, the molecular basis for this effect was then investigated. First, cells treated with UNC0642 were examined for its effect on the cleavage of PARP as a measure of apoptosis.

[1] = test system: PD-L1 and PD-1 in CD8+ T cells; assay: Flow cytometry analysis of tumor infiltrating lymphocytes from AT3 tumors; type: in vivo, C57BL/6 mice; conditions: TILs from AT3 tumors, UNC0642 25 mg/kg every 2 days for 14 days, FIG. 18
Description: C57BL/6 mice were purchased from the ARC Animal Resources Centre and used between the ages of 6 and 16 weeks. Groups of 3 to 8 mice per experiment were used for experimental assays, to ensure adequate power to detect biological differences. All experiments were approved by the QIMR Berghofer Medical Research Institute Animal Ethics Committee.
The C57BL/6 AT3 mammary adenocarcinoma (obtained from Dr. Trina Stewart in 2009, Peter MacCallum Cancer Centre, Melbourne, Australia) were maintained as previously described (Casciello et al PNAS 2017). The AT3 cell line was tested negative for mycoplasma. For in vivo experiments, 1×10^5 cells were subcutaneously injected into mice in a 100 μL volume.
AT3 tumor growth was measured using a digital caliper, and tumor volumes were presented as mean±SEM. For flow cytometry analyses of intratumor immune cells, mice bearing established AT3 tumor (days 14-19) were treated with the indicated antibodies or reagents and immune cells were isolated 48 to 72 hours post treatment.
Tumors tissues were harvested from mice that had been treated with mAb or otherwise and processed for flow cytometry analysis. […]

normal melanocytes = assay: Cell viability by MTT assay, normal melanocytes; type: cell-based; conditions: 5 μM, 48 hours, FIG. 2
Experimental: UNC0642 was purchased from Sigma Aldrich. The panel of human melanoma cell lines, derived from cutaneous melanomas, is shown in Table 1 and the cells have all been previously described. Cells were maintained in Roswell Park Memorial Institute (RPMI) 1640 supplemented with 10% fetal bovine serum (FBS), 100 U/mL penicillin, and 100 µg/mL streptomycin in a humidified atmosphere of 5% CO2 at 37° C. Normal melanocytes were grown in Clonetics™ MGM™-4 Melanocyte Growth Medium-4 supplemented with CaCl2, phorbol-12-myristate 13-acetate (PMA), recombinant human fibroblast growth factor basic (rhFGF-B), recombinant human insulin (rh-insulin), hydrocortisone, bovine pituitary extract (BPE), FBS and GA-1000 (30 μg/ml Gentamycin and 15 ng/ml Amphotericin) (Lonza).
For proliferation studies, cells (5×10^3) were seeded in 96-place wells and allowed to adhere overnight, and incubated in fresh growth medium in the presence of either the G9a inhibitor UNC0642 (Sigma Aldrich) or the vehicle control DMSO (Sigma Aldrich). Proliferation was evaluated via real-time imaging using IncuCyte Zoom (Essen BioScience) and/or by performing a 3-(4,5-dimethylthiazol-2-yl)-2,5-diphenyltetrazolium bromide ([…]) assay. After monitoring the cells, 20 μL of MTT (5 mg/mL; Sigma-Aldrich) was added. […] The absorbance value (optical density) of each well was measured at 570 nm.

Structure (SMILES): COc1cc2c(NC3CCN(C(C)C)CC3)nc(N3CCC(F)(F)CC3)nc2cc1OCCCN1CCCC1 [UNC0642]
- PARP cleavage (PARP): No observable PARP cleavage
- PD-L1 and PD-1 in CD8+ T cells [1]: down-regulation
- survival of the normal melanocyte cell culture (normal melanocytes): unaffected
